Experimental data from US9745311B2, “Substituted pyrrolo[2,3-b]pyrazines as FGFR inhibitors” (Incyte Corporation, priority 2012, dated 2017).
Read-outs that look alike come from different tables or passages of the source.

Experiments:
[1] = target: FGFR2 (Homo sapiens (Human), UniProt P21802); experiment: FGFR Enzymatic Assay (FGFR2); format: biochemical;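 also: FRET read-out of peptide phosphorylation by the purified kinase, with enzyme-free blank and uninhibited enzyme as controls, potency from a variable-slope sigmoidal dose-response fit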
Procedure: (§1) The inhibitor potency of compounds was measured in an enzyme assay that measures peptide phosphorylation using FRET measurements to detect product formation. Inhibitors were serially diluted in DMSO and a volume of 0.5 μL was transferred to the wells of a 384-well plate. For FGFR3, a 10 μL volume of FGFR3 enzyme (Millipore) diluted in assay buffer (50 mM HEPES, 10 mM MgCl2, 1 mM EGTA, 0.01% Tween-20, 5 mM DTT, pH 7.5) was added to the plate and pre-incubated for 5-10 minutes. Appropriate controls (enzyme blank and enzyme with no inhibitor) were included on the plate. […] The plate was incubated at 25° C. for 1 hr. […] The plate was allowed to equilibrate for ˜1 hr before scanning the wells on a PheraStar plate reader.
(§2) GraphPad prism3 was used to analyze the data. The IC50 values were derived by fitting the data to the equation for a sigmoidal dose-response with a variable slope. Y=Bottom+(Top−Bottom)/(1+10^((Log IC50−X)*HillSlope)) where X is the logarithm of concentration and Y is the response.

[2] = target: FGFR1 (Homo sapiens (Human), UniProt P11362); experiment: FGFR Enzymatic Assay (FGFR1); format: biochemical; conditions: enzyme 0.02 nM, ATP 210 μM
Procedure: as §1, §2

[3] = target: T1, FGFR3 enzyme (Millipore) (Homo sapiens (Human), UniProt P22607); experiment: biochemical
Procedure: as §1, §2

[4] = target: T1, FGFR3 enzyme (Millipore); conditions: read-out: FGFR3 IC50, ATP 140 μM
Procedure: as §1, §2

[5] = enzyme 0.01 nM, ATP 100 μM, read-out: FGFR2 IC50

T1 sequence (P22607 23-806): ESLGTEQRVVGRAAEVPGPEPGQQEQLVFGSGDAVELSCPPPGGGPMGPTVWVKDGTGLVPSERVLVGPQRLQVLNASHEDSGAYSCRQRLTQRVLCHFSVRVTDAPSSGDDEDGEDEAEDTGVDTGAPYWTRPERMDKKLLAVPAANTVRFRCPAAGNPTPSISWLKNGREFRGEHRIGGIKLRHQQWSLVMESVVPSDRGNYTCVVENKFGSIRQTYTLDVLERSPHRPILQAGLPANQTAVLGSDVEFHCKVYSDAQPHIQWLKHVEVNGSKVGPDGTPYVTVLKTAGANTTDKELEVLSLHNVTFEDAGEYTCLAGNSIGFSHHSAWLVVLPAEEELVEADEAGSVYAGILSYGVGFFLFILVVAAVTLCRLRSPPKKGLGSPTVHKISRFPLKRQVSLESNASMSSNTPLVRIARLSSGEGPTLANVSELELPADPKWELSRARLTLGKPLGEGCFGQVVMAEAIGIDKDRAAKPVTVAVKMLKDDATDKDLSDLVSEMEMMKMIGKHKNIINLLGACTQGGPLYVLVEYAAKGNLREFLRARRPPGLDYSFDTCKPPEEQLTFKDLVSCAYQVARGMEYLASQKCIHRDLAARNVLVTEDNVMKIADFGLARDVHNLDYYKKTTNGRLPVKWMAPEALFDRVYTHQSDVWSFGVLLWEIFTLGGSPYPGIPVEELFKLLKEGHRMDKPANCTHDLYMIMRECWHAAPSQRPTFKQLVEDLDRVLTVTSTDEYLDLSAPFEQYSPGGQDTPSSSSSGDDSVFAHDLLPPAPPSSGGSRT
Sequence of FGFR2 (P21802 22-821): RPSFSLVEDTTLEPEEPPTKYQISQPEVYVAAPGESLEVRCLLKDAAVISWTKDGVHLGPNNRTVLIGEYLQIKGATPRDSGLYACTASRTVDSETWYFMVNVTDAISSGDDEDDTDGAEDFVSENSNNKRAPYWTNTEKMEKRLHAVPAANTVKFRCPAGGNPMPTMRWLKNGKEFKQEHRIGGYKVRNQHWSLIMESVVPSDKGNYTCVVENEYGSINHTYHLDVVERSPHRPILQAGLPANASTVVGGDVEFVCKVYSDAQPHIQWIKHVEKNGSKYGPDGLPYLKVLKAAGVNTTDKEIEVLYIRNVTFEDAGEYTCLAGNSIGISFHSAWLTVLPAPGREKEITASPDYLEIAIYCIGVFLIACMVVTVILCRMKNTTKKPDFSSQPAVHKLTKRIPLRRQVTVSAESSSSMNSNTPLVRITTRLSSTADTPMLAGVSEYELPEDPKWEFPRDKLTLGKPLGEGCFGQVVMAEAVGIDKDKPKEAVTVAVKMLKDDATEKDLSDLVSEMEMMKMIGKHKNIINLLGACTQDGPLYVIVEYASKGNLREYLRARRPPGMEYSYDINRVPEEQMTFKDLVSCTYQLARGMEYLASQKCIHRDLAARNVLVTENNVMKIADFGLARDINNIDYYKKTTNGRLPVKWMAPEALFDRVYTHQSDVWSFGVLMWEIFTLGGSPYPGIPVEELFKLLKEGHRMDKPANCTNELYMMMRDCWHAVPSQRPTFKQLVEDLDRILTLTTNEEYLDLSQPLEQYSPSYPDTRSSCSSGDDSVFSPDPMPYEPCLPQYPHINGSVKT
Sequence of FGFR1 (P11362 22-822): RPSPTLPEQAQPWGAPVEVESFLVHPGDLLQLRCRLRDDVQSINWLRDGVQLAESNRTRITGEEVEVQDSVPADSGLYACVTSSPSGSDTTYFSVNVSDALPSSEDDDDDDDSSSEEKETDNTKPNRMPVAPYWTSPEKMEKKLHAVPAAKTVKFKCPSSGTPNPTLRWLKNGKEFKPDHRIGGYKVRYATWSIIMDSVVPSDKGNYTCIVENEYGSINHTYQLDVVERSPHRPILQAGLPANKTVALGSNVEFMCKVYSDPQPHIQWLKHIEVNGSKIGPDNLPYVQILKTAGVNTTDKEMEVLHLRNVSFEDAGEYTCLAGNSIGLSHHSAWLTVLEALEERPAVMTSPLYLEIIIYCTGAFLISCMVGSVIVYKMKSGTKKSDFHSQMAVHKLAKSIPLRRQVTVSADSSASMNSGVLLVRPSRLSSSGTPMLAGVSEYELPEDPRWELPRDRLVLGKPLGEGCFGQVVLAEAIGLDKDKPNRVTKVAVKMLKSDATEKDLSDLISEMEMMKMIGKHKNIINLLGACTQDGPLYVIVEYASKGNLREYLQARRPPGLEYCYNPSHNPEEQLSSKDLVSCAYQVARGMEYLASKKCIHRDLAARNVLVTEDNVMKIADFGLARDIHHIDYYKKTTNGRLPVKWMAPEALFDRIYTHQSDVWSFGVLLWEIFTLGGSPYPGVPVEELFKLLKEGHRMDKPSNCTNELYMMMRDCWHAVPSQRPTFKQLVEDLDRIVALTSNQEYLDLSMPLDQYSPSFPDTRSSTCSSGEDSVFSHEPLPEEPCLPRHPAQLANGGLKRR

| SMILES | IC50 [1, 5] [µM] | IC50 [2] [µM] | IC50 ([4]; class symbols) [µM] | IC50 [3] [µM] | IC50 [1] [µM] | IC50 ([4]; numeric bounds) [µM] |
| --- | --- | --- | --- | --- | --- | --- |
| COc1cc(CCc2cnc3[nH]c(-c4ccnc(C#N)c4)cc3n2)cc(OC)c1 [Example 60, 4-(2-(3,5-Dimethoxyphenethyl)-5H-pyrrolo[2,3-b]pyrazin-6-yl)picolinonitrile] | < 0.1 | < 0.1 |  | 0.1 to 0.5 |  |  |
| COc1cc(CCc2cnc3[nH]c(-c4cncc(C(=O)N5CCOCC5)c4)cc3n2)cc(OC)c1 [Example 18, 2-[2-(3,5-dimethoxyphenyl)ethyl]-6-[5-(morpholin-4-ylcarbonyl)pyridin-3-yl]-5H-pyrrolo[2,3-b]pyrazine] | < 0.1 | < 0.1 |  | 0.5 to 2.7 |  |  |
| COc1cc(CCc2cnc3[nH]c(-c4ccc5cnn(C)c5c4)cc3n2)cc(OC)c1 [Example 63, 2-(3,5-Dimethoxyphenethyl)-6-(1-methyl-1H-indazol-6-yl)-5H-pyrrolo[2,3-b]pyrazine] | < 0.1 | < 0.1 |  | 0.1 to 0.5 |  |  |
| CNC(=O)c1c(-c2ccc(N3CCN(C)CC3)cc2)[nH]c2ncc(CCc3cc(OC)cc(OC)c3)nc12 [Example 50, 2-[2-(3,5-dimethoxyphenyl)ethyl]-N-methyl-6-[4-(4-methylpiperazin-1-yl)phenyl]-5H-pyrrolo[2,3-b]pyrazine-7-carboxamide] | < 0.1 | < 0.1 |  | 0.5 to 2.7 |  |  |
| CCN(CC)CC#Cc1cc2nc(CCc3cc(OC)cc(OC)c3)cnc2[nH]1 [Example 27, 3-{2-[2-(3,5-dimethoxyphenyl)ethyl]-5H-pyrrolo[2,3-b]pyrazin-6-yl}-N,N-diethylprop-2-yn-1-amine] |  | < 0.1 |  |  | 0.1 to 0.5 | > 2 |
| COc1cc(CCc2cnc3[nH]c(-c4cnc5nccnc5c4)cc3n2)cc(OC)c1 [Example 66, 7-(2-(3,5-Dimethoxyphenethyl)-5H-pyrrolo[2,3-b]pyrazin-6-yl)pyrido[2,3-b]pyrazine] | < 0.1 | < 0.1 |  |  |  | > 2 |
| COc1cc(CCc2cnc3[nH]c(-c4cnn(CCN(C)C)c4)cc3n2)cc(OC)c1 [Example 34, 2-(4-{2-[2-(3,5-dimethoxyphenyl)ethyl]-5H-pyrrolo[2,3-b]pyrazin-6-yl}-1H-pyrazol-1-yl)-N,N-dimethylethanamine] | < 0.1 | < 0.1 | < 0.1 |  |  |  |
| COc1cc(CCc2cnc3[nH]c(-c4ccc(N5CCN(C)CC5)cc4)c(C)c3n2)cc(OC)c1 [Example 51, 2-[2-(3,5-dimethoxyphenyl)ethyl]-7-methyl-6-[4-(4-methylpiperazin-1-yl)phenyl]-5H-pyrrolo[2,3-b]pyrazine] | < 0.1 | < 0.1 | < 0.1 |  |  |  |
| COc1cc(CCc2cnc3[nH]c(-c4ccc(C5CCN(C)CC5)cc4)cc3n2)cc(OC)c1 [Example 22, 2-[2-(3,5-dimethoxyphenyl)ethyl]-6-[4-(1-methylpiperidin-4-yl)phenyl]-5H-pyrrolo[2,3-b]pyrazine] | < 0.1 | < 0.1 | < 0.1 |  |  |  |
| COc1cc(CCc2cnc3[nH]c(-c4ccc(CN5CCCCC5)cc4)cc3n2)cc(OC)c1 [Example 11, 2-[2-(3,5-dimethoxyphenyl)ethyl]-6-[4-(piperidin-1-ylmethyl)phenyl]-5H-pyrrolo[2,3-b]pyrazine] | < 0.1 | < 0.1 | < 0.1 |  |  |  |
| COc1cc(CCc2cnc3[nH]c(-c4ccc(N5CCN(C)CC5=O)cc4)cc3n2)cc(OC)c1 [Example 76, 1-(4-(2-(3,5-Dimethoxyphenethyl)-5H-pyrrolo[2,3-b]pyrazin-6-yl)phenyl)-4-methylpiperazin-2-one] | < 0.1 | < 0.1 | < 0.1 |  |  |  |
| CNC(=O)c1ccc(-c2cc3nc(CCc4cc(OC)cc(OC)c4)cnc3[nH]2)cc1F [Example 57, 4-(2-(3,5-Dimethoxyphenethyl)-5H-pyrrolo[2,3-b]pyrazin-6-yl)-2-fluoro-N-methylbenzamide] | < 0.1 | < 0.1 | < 0.1 |  |  |  |
| COc1cc(CCc2cnc3[nH]c(-c4ccc5c(c4)CC(=O)N5)cc3n2)cc(OC)c1 [Example 80, 5-(2-(3,5-Dimethoxyphenethyl)-5H-pyrrolo[2,3-b]pyrazin-6-yl)indolin-2-one] | < 0.1 | < 0.1 | < 0.1 |  |  |  |
| COc1cc(CCc2cnc3[nH]c(-c4ccc(N5CCN(C)CC5)cc4)cc3n2)cc(OC)c1 [Example 1, 2-[2-(3,5-dimethoxyphenyl)ethyl]-6-[4-(4-methylpiperazin-1-yl)phenyl]-5H-pyrrolo[2,3-b]pyrazine] | < 0.1 | < 0.1 | < 0.1 |  |  |  |
| COc1cc(CCc2cnc3[nH]c(-c4ccc(C(=O)O)cc4)cc3n2)cc(OC)c1 [Example 15, 4-{2-[2-(3,5-dimethoxyphenyl)ethyl]-5H-pyrrolo[2,3-b]pyrazin-6-yl}benzoic acid] | < 0.1 | < 0.1 | < 0.1 |  |  |  |
| COc1cc(CCc2cnc3[nH]c(-c4ccc(N5CCN(C)CC5)cc4)c(Cl)c3n2)cc(OC)c1 [Example 47, 7-chloro-2-[2-(3,5-dimethoxyphenyl)ethyl]-6-[4-(4-methylpiperazin-1-yl)phenyl]-5H-pyrrolo[2,3-b]pyrazine] | < 0.1 | < 0.1 | < 0.1 |  |  |  |
| COc1cc(CCc2cnc3[nH]c(-c4ccc(N5CCN(C)CC5)cc4)c(C#N)c3n2)cc(OC)c1 [Example 45, 2-[2-(3,5-dimethoxyphenyl)ethyl]-6-[4-(4-methylpiperazin-1-yl)phenyl]-5H-pyrrolo[2,3-b]pyrazine-7-carbonitrile] | < 0.1 | < 0.1 | < 0.1 |  |  |  |

More lines, main results first:

| IC50 [1, 5] [µM] | IC50 [2] [µM] | IC50 ([4]; class symbols) [µM] | SMILES | IC50 [3] [µM] | IC50 [1] [µM] | IC50 ([4]; numeric bounds) [µM] |
| --- | --- | --- | --- | --- | --- | --- |
| < 0.1 | < 0.1 | < 0.1 | COc1cc(CCc2cnc3[nH]c(-c4cnn(C[C@H](C)O)c4)cc3n2)cc(OC)c1 [Example 39, (2S)-1-(4-{2-[2-(3,5-dimethoxyphenyl)ethyl]-5H-pyrrolo[2,3-b]pyrazin-6-yl}-1H-pyrazol-1-yl)propan-2-ol] |  |  |  |
| < 0.1 | < 0.1 | < 0.1 | COc1cc(CCc2cnc3[nH]c(-c4cnn(C(CC#N)C5CCCC5)c4)cc3n2)cc(OC)c1 (stereo not drawn) [Example 35, 3-cyclopentyl-3-(4-{2-[2-(3,5-dimethoxyphenyl)ethyl]-5H-pyrrolo[2,3-b]pyrazin-6-yl}-1H-pyrazol-1-yl)propanenitrile] |  |  |  |
| < 0.1 | < 0.1 | < 0.1 | COc1cc(CCc2cnc3[nH]c(-c4ccccc4)cc3n2)cc(OC)c1 [Example 3, 2-(3,5-dimethoxyphenethyl)-6-phenyl-5H-pyrrolo[2,3-b]pyrazine] |  |  |  |
| < 0.1 | < 0.1 | < 0.1 | CNC(=O)c1cc(-c2cc3nc(CCc4cc(OC)cc(OC)c4)cnc3[nH]2)ccn1 [Example 73, 4-(2-(3,5-Dimethoxyphenethyl)-5H-pyrrolo[2,3-b]pyrazin-6-yl)-N-methylpicolinamide] |  |  |  |
| < 0.1 | < 0.1 | < 0.1 | COc1cc(CCc2cnc3[nH]c(-c4ccc(N5CCN(C)CC5)cc4)cc3n2)c(Cl)c(OC)c1 [Example 48, 2-[2-(2-chloro-3,5-dimethoxyphenyl)ethyl]-6-[4-(4-methylpiperazin-1-yl)phenyl]-5H-pyrrolo[2,3-b]pyrazine] |  |  |  |
| < 0.1 | < 0.1 | < 0.1 | COc1cc(CCc2cnc3[nH]c(-c4ccc(N5CCN(CCO)CC5)cc4)cc3n2)cc(OC)c1 [Example 71, 2-(4-(4-(2-(3,5-Dimethoxyphenethyl)-5H-pyrrolo[2,3-b]pyrazin-6-yl)phenyl)piperazin-1-yl)ethanol] |  |  |  |
| < 0.1 | < 0.1 | < 0.1 | COc1cc(OC)c(F)c(CCc2cnc3[nH]c(-c4cccnc4OC)cc3n2)c1F [Example 86, 2-(2,6-difluoro-3,5-dimethoxyphenethyl)-6-(2-methoxypyridin-3-yl)-5H-pyrrolo[2,3-b]pyrazine] |  |  |  |
| < 0.1 | < 0.1 | < 0.1 | COc1cc(CCc2cnc3[nH]c(-c4cnn(C5CCOCC5)c4)cc3n2)cc(OC)c1 [Example 32, 2-[2-(3,5-dimethoxyphenyl)ethyl]-6-[1-(tetrahydro-2H-pyran-4-yl)-1H-pyrazol-4-yl]-5H-pyrrolo[2,3-b]pyrazine] |  |  |  |
| < 0.1 | < 0.1 | < 0.1 | COc1cc(CCc2cnc3[nH]c(-c4ccc(C(=O)NC(C)C)c(Cl)c4)cc3n2)cc(OC)c1 [Example 53, 2-Chloro-4-(2-(3,5-dimethoxyphenethyl)-5H-pyrrolo[2,3-b]pyrazin-6-yl)-N-isopropylbenzamide] |  |  |  |
| < 0.1 | < 0.1 | < 0.1 | COc1cc(OC)c(Cl)c(CCc2cnc3[nH]c(-c4ccc(N5CCN(C)CC5)cc4)cc3n2)c1Cl [Example 49, 2-[2-(2,6-dichloro-3,5-dimethoxyphenyl)ethyl]-6-[4-(4-methylpiperazin-1-yl)phenyl]-5H-pyrrolo[2,3-b]pyrazine] |  |  |  |
| < 0.1 | < 0.1 | < 0.1 | COc1cc(CCc2cnc3[nH]c(-c4ccc(CO)cc4)cc3n2)cc(OC)c1 [Example 13, (4-{2-[2-(3,5-dimethoxyphenyl)ethyl]-5H-pyrrolo[2,3-b]pyrazin-6-yl}phenyl)methanol] |  |  |  |
| < 0.1 | < 0.1 | < 0.1 | COc1cc(CCc2cnc3[nH]c(-c4ccc(C(=O)N(C)C)c(Cl)c4)cc3n2)cc(OC)c1 [Example 56, 2-Chloro-4-(2-(3,5-dimethoxyphenethyl)-5H-pyrrolo[2,3-b]pyrazin-6-yl)-N,N-dimethylbenzamide] |  |  |  |
| < 0.1 | < 0.1 | < 0.1 | COc1cc(CCc2cnc3[nH]c(-c4ccnc(N5CCNCC5)c4)cc3n2)cc(OC)c1 [Example 64, 2-(3,5-Dimethoxyphenethyl)-6-(2-(piperazin-1-yl)pyridin-4-yl)-5H-pyrrolo[2,3-b]pyrazine] |  |  |  |
